Measurements reported in article PMC4929710, “Specificity and mechanism of action of alpha-helical membrane-active peptides interacting with model and biological membranes by single-molecule force spectroscopy” (Scientific Reports, 2016).
Read-outs that look alike come from different tables or passages of the source.

Tests used:
[1] = Circular dichroism (CD) analysis; assay type: physicochemical; settings: for α-Helix (%) 50% TFE / α-Helix (%) Benign: relative to molar ellipticity of A12L/A20L in 50% TFE; for [θ]222 Benign / [θ]222 50% TFE: CD, 25 °C; for [θ]222 Benign: benign buffer pH 7.0, 100 mM KCl, 50 mM KH2PO4/K2HPO4; for [θ]222 50% TFE: benign buffer:TFE 1:1 vol/vol; for α-Helix (%) Benign: benign buffer
Procedure: The secondary structures of the peptides were determined using a Jasco J-810 CD spectrometer (Jasco, Easton, MD) at 25 °C [12]. The benign buffer (pH 7.0, 100 mM KCl, 50 mM KH2PO4/K2HPO4) was used to simulate the hydrophilic environment and 50% 2,2,2-trifluoroethanol (TFE) (benign buffer: TFE = 1: 1, vol/vol) was used to simulate the hydrophobic environment. The mean residue molar ellipticities at 222 nm, [θ]222 (degree·cm^2·dmol^−1), were used to calculate the relative helical contents of MAPs[24].
CD spectroscopy illustrated the secondary structure of peptide analogs under benign environment and 50% TFE to mimic the hydrophobic conditions of cell membranes. CD results are shown in Supplementary Table S2 and Fig. S1. […] The helical content (%) of peptides in two groups relative to the molar ellipticity value of the peptide A12L/A20L in 50% TFE. In addition, except the peptide of V13E, the relative helicity of the peptides are in the same order of V13L>V13A>V13S>V13K and A12L/A20L>A20L>L6A>L6A/L17A in the benign and hydrophobic environments and also in the same order with the peptide hydrophobicity.

A. laidlawii cells = experiment: Single-molecule force spectroscopy (AFM); assay type: binding, Acholeplasma laidlawii; settings: RMS ± SD; N-terminal Cys peptide on AFM tip via PEG linker
From the text: (§1) Based on the above results, five selected peptides of V13L, A12L/A20L, V13K, V13E, and L6A/L17A, with different hydrophobicity and charges were used to examine the interaction probabilities and forces between peptides and membranes, both on the lipid model membranes and on the biological membranes by SMFS based on AFM, respectively. A cysteine residue was covalently introduced to the N-terminus of peptides and provided a free sulfhydryl group to modify the tips of the AFM. A PEG linker was used since each heterobifunctional PEG–NHS linker (approximately 20 nm) can only covalently connect with a single peptide molecule, which guarantees a single-molecule interaction between MAPs and biological membranes in real time[19]. If an AFM tip was functionalized with two or more peptides, where several peaks were recorded. In the reports, data with two peaks were not collected and calculated. For one force–distance cycle, one peptide-functionalized AFM tip approached the model and biological membranes right on the top, and the subsequent tip was withdrawn from the cell membranes to retrace the process. […] In addition, blocking experiment was used to test the specificity of these force events. As the electrostatic attraction is one important reason for peptides approaching model membranes and biological membranes, the Tris-HCl buffer including plenty amino groups[20] was injected into the working chamber and inhibits the interactions between MAPs and model membranes/biological membranes. […] The unbinding forces of V13L against different model membranes and biological membranes with the loading rate of 1 × 10^5 pN s^−1 are shown in Fig. 3c,f–h,j–l.
(§2) The AFM tip was first washed with concentrated sulfuric acid and hydrogen peroxide (3:1, v:v). The tip was dried using ozone (O3) for 15 min and dried overnight in a dryer. The tip was then modified with APTES under an argon atmosphere and the peptide connected with a PEG–NHS linker. Finally, the AFM tip linked with the peptide was washed three times in PBS and kept at 4 °C. A 500-μL LUV suspension was deposited on Lys coated glass and the LUVs were absorbed on the surface for 1 h at 65 °C [9][29]. A. laidlawii was deposited on poly-L-lysine coated glass and absorbed for 1 h at 37 °C [30]. The 3T3-L1 and HeLa cells were cultured on glass slides in Dulbecco’s modified Eagle’s medium (DMEM). Before performing force spectroscopy experiments, the cells were washed with fresh DMEM three times to remove the cell metabolites. Isolation of chicken erythrocytes was carried out at room temperature. Then the erythrocytes were washed three times in 2 mL PBS buffer by centrifuge (1,000 rpm) and resuspended in PBS buffer. 200 μL erythrocyte suspension were deposited onto poly-L-lysine coated glass for 20 min[10]. […]

[2] = tested on: PC/SM/PE/PS/Chol (4.35:4.35:1:0.3:1 w/w) LUVs; experiment: Single-molecule force spectroscopy (AFM); assay type: binding; settings: RMS ± SD; N-terminal Cys peptide on AFM tip via PEG linker; cancer cell model membrane
From the text: as §1
(§3) In accordance with previously described methods, LUVs were prepared with PC/PG (7:3 w/w), PC/Chol (8:1 w/w), and PC/SM/PE/PS/Chol (4.35:4.35:1:0.3:1 w/w) to mimic prokaryotic cell, […], membranes, respectively. Lipids using the freeze-thaw method as described previously, followed by extrusion through […] double-stacked nuclepore filters using an Mini-Extruder (Avanti Polar Lipids, Inc.)[11][27].
(§4) The AFM tip was first washed with concentrated sulfuric acid and hydrogen peroxide (3:1, v:v). The tip was dried using ozone (O3) for 15 min and dried overnight in a dryer. The tip was then modified with APTES under an argon atmosphere and the peptide connected with a PEG–NHS linker. Finally, the AFM tip linked with the peptide was washed three times in PBS and kept at 4 °C. A 500-μL LUV suspension was deposited on Lys coated glass and the LUVs were absorbed on the surface for 1 h at 65 °C [9][29]. A. laidlawii was deposited on poly-L-lysine coated glass and absorbed for 1 h at 37 °C [30]. The 3T3-L1 and HeLa cells were cultured on glass slides in Dulbecco’s modified Eagle’s medium (DMEM). Before performing force spectroscopy experiments, the cells were washed with fresh DMEM three times to remove the cell metabolites. Isolation of chicken erythrocytes was carried out at room temperature. Then the erythrocytes were washed three times in 2 mL PBS buffer by centrifuge (1,000 rpm) and resuspended in PBS buffer. 200 μL erythrocyte suspension were deposited onto poly-L-lysine coated glass for 20 min[10]. The force measurements of MAPs with LUVs mimicking membranes and living cells were performed using the AFM5500 (Agilent Technologies, Chandler, AZ, USA)[19].

PC/PG (7:3 w/w) LUVs = experiment: Single-molecule force spectroscopy (AFM); assay type: binding; settings: RMS ± SD; N-terminal Cys peptide on AFM tip via PEG linker; prokaryotic model membrane
From the text: as §1, §3, §4

3T3-L1 cells = experiment: Single-molecule force spectroscopy (AFM); assay type: binding, mouse; settings: RMS ± SD; N-terminal Cys peptide on AFM tip via PEG linker
From the text: as §1, §2

[3] = tested on: gram-negative bacteria (P. aeruginosa and E. coli); assay type: cell-based
Procedure: (§5) Then, 10 μL of peptides was added. […] All assays were repeated in triplicate.

S. aureus ATCC25923 = assay type: cell-based
Procedure: as §5

[4] = tested on: gram-positive bacteria (S. aureus and S. epidermidis); assay type: cell-based
Procedure: as §5

S. epidermidis ATCC12228 = assay type: cell-based
Procedure: as §5

P. aeruginosa ATCC27853 = assay type: cell-based
Procedure: as §5

E. coli ATCC25922 = assay type: cell-based
Procedure: as §5

[5] = tested on: chicken erythrocyte membranes; experiment: Single-molecule force spectroscopy (AFM); assay type: binding; settings: for Unbinding force Chicken erythrocyte: RMS ± SD, N-terminal Cys peptide on AFM tip via PEG linker
From the text: as §1, §4

[6] = geometric mean of MIC values from two gram-negative strains
[7] = MH medium, 5 × 10^5 CFU/mL, 24 h, 37 °C, triplicate
[8] = geometric mean of MIC values from two gram-positive strains

Row | Molecule | α-Helix (%) 50% TFE [1] | [θ]222 Benign [1] | [θ]222 50% TFE [1] | α-Helix (%) Benign [1] | Unbinding force A. laidlawii (A. laidlawii cells) | Unbinding force PC/SM/PE/PS/Chol [2] | Unbinding force PC/PG (PC/PG (7:3 w/w) LUVs) | Unbinding force 3T3-L1 (3T3-L1 cells) | G− MIC GM [3, 6] | G+ MIC S. aureus ATCC25923 (S. aureus ATCC25923; [7]) | G+ MIC GM [4, 8] | G+ MIC S. epidermidis ATCC12228 (S. epidermidis ATCC12228; [7]) | G− MIC P. aeruginosa ATCC27853 (P. aeruginosa ATCC27853; [7]) | G− MIC E. coli ATCC25922 (E. coli ATCC25922; [7]) | Unbinding force Chicken erythrocyte [5] | G− MIC GM [3] | G+ MIC S. aureus ATCC25923 (S. aureus ATCC25923; ATCC25923, 24 h) | G+ MIC GM [4] | G+ MIC S. epidermidis ATCC12228 (S. epidermidis ATCC12228; ATCC12228, 24 h) | G− MIC P. aeruginosa ATCC27853 (P. aeruginosa ATCC27853; ATCC27853, 24 h) | further results
1 | CC[C@H](C)[C@H](NC(=O)[C@H](C)NC(=O)[C@H](CCCCN)NC(=O)[C@H](CC(C)C)NC(=O)[C@H](C)NC(=O)[C@@H](NC(=O)[C@H](Cc1cnc[nH]1)NC(=O)[C@H](CC(C)C)NC(=O)[C@@H](NC(=O)[C@@H](NC(=O)[C@H](CCCCN)NC(=O)[C@H](CCCCN)NC(=O)[C@H](C)NC(=O)[C@H](CO)NC(=O)[C@H](CCCCN)NC(=O)[C@H](Cc1ccccc1)NC(=O)[C@@H](NC(=O)[C@H](CCCCN)NC(=O)[C@H](CC(C)C)NC(=O)[C@H](Cc1ccccc1)NC(=O)[C@H](CO)NC(=O)[C@H](CCCCN)NC(=O)[C@H](Cc1c[nH]c2ccccc12)NC(=O)[C@H](CCCCN)NC(C)=O)[C@@H](C)O)[C@@H](C)O)C(C)C)[C@@H](C)O)C(=O)N[C@@H](CO)C(=O)N[C@@H](CO)C(N)=O [Peptide V13K] | 69.85% | −4236.54 degree·cm^2·dmol^−1 | −30268.40 degree·cm^2·dmol^−1 | 9.77% | 51 ± 18 pN | 128 ± 51 pN | 135 ± 36 pN | 51 ± 15 pN | 8 µM | 32 µM | 11.31 µM | 4 µM | 8 µM | 8 µM | 87 ± 39 pN |  |  |  |  |  | 
2 | Ac-KWKSFAKTFKSAKKTVAHTALKAISS-NH2 [L6A/L17A] | 65.58% | −3589.82 degree·cm^2·dmol^−1 | −28421.80 degree·cm^2·dmol^−1 | 8.28% | 41 ± 15 pN | 130 ± 36 pN | 132 ± 41 pN | 39 ± 12 pN | 125 µM | 125 µM | 125 µM | 125 µM | 125 µM | 125 µM | 78 ± 39 pN |  |  |  |  |  | 
3 | Ac-KWKSFLKTFKSAEKTVLHTALKAISS-NH2 [Peptide V13E] | 43.13% | −3876.86 degree·cm^2·dmol^−1 | −18689.59 degree·cm^2·dmol^−1 | 8.95% | 55 ± 12 pN | 92 ± 34 pN | 111 ± 37 pN | 51 ± 11 pN |  |  |  |  |  |  | 59 ± 35 pN | 89.44 µM | 125 µM | 125 µM | 125 µM | 125 µM | G− MIC E. coli ATCC25922 (E. coli ATCC25922; ATCC25922, 24 h): 64 µM
4 | Ac-KWKSFLKTFKSALKTVLHTALKAISS-NH2 [Peptide V13L] | 90.73% | −10502.62 degree·cm^2·dmol^−1 | −39315.30 degree·cm^2·dmol^−1 | 24.24% | 27 ± 9 pN | 124 ± 40 pN | 127 ± 34 pN | 30 ± 11 pN |  |  |  |  |  |  | 76 ± 34 pN | 5.66 µM | 8 µM | 4 µM | 2 µM | 8 µM | G− MIC E. coli ATCC25922 (E. coli ATCC25922; ATCC25922, 24 h): 4 µM; Interaction probability of the force signal ([5]; chicken erythrocyte membranes, out of about 1000 force cycles): about 18%
